{"source": "patent EP0403048A2", "about": "“Medicated compositions containing sucralfate and processes for their production” (WARNER-LAMBERT COMPANY, priority 1989, dated 1990)", "key": {"[1]": {"assay": "in vitro comparative gelling experiment in 0.1N hydrochloric acid", "format": "physicochemical"}, "[2]": {"test_system": "Escherichia coli, A.T.T.C. accession number 8739", "assay": "in-vitro antimicrobial activity, zone of inhibition on agar plates", "format": "cell-based", "settings": "agar plate well, incubated at 37° C. for 24 hours"}}, "note": "Read-outs that look alike come from different tables or passages of the source.", "data": [{"molecule": "O=C(O)c1ccccc1", "note": "[Example 10, Benzoic Acid]", "values": [{"measurement": "gel formation", "setting": "[1]", "result": "did not gel"}]}, {"molecule": "Cl", "note": "[Example 12, 0.1N Hydrochloric Acid]", "values": [{"measurement": "gel formation", "setting": "[1]", "result": "gelled"}]}, {"molecule": "Sucralfate [Example 1]", "values": [{"measurement": "supernatant left after gelling", "setting": "[1]; 15ml of 0.1N hydrochloric acid", "result": "essentially clear"}, {"measurement": "gelled in (time to gel)", "setting": "[1]; composition in 15ml of 0.1N hydrochloric acid, Vortex-Genie speed 3 for 10-15 seconds", "result": "about 10 seconds"}]}, {"molecule": "Sucralfate [Example 7]", "values": [{"measurement": "gel formation", "setting": "[1]; sample preparation for the antimicrobial test: 15ml of 0.1N hydrochloric acid in sterile test tube", "result": "gelled"}, {"measurement": "ZONE OF INHIBITION(CM)", "setting": "[2]", "result": "Negative"}]}]}
